Experimental data reported in the NIST ThermoML archive (doi:10.1016/j.tca.2013.05.015).
Numbers after ± are expanded uncertainties.

Conditions: 101.33 kPa, Liquid; for speed of sound: Sing-around technique in a fixed-path interferometer; for mass density: Vibrating tube method

Row | Structure (SMILES) | speed of sound (298.15 K) [m/s] | mass density (298.15 K) [kg/m3] | speed of sound (303.15 K) [m/s] | mass density (303.15 K) [kg/m3] | speed of sound (308.15 K) [m/s] | mass density (308.15 K) [kg/m3] | speed of sound (313.15 K) [m/s] | mass density (313.15 K) [kg/m3]
1 | CCOC(C)=O [ethyl acetate] | 1141 ± 10 | 894.4 ± 2 | 1118 ± 10 | 888.5 ± 2 | 1096 ± 10 | 882.7 ± 2 | 1073 ± 10 | 876.3 ± 2
2 | CCO [ethanol] | 1149 ± 10 | 785.7 ± 2 | 1128 ± 10 | 782 ± 2 | 1098 ± 10 | 777.7 ± 2 | 1086 ± 10 | 773.6 ± 2
